Measured values: PMC3571899, “M48U1 CD4 mimetic has a sustained inhibitory effect on cell-associated HIV-1 by attenuating virion infectivity through gp120 shedding” (Retrovirology, 2013)

Key:
HIV-1 Bal [1] = experiment: Antiviral EC50 in PBMCs against HIV-1 Bal; type: cell-based; conditions: linear regression analysis, one experiment with 6 replicates
HIV-1 Bal infected PBMCs = experiment: Gag p24 production by infected PBMCs during 24 h ARV treatment (p24 capture ELISA); type: cell-based; conditions: 24 h treatment at 100x EC50, Gag p24 capture ELISA
Description: Figure 1 M48U1 has a memory effect on cell-associated virus. A) The Trojan Horse transmission concept was modeled in vitro using HIV-infected PBMCs which were treated for 24 h with antiretrovirals (ARVs) from different classes at 100x EC50 concentrations. Subsequently, virus production was quantified using a Gag p24 ELISA. To mimic escape from vaginal drug pressure, the infected cells were then incubated in ARV-free medium for three consecutive periods of 24 h. Infectivity of newly produced virions was determined after each period by titration in TZM-bl cells and PBMCs using equal amounts of p24. […] Values represent the 50% Tissue Culture Infective Dose (TCID50)/ml as measured in one experiment carried out in triplicate.
PHA/IL-2 stimulated PBMCs were infected with 2 x 10^-3 multiplicity of infection (MOI) of the CCR5-tropic subtype B strain Bal for three days and subsequently washed extensively to remove the inoculum (Figure 1A). […] The virions produced from these cultures were then quantified in quadruplicate by a Gag p24 capture ELISA [18].

HIV-1 Bal [2] = experiment: Infectivity of de novo virus from pretreated, washed infected PBMCs (memory effect); type: cell-based; conditions: for relative titer of de novo produced virions: PBMCs pretreated 24 h at 100x EC50, washed, 24 h drug-free, titrated on TZM-bl cells with equal p24, relative to untreated control
Description: Figure 1 M48U1 has a memory effect on cell-associated virus. A) The Trojan Horse transmission concept was modeled in vitro using HIV-infected PBMCs which were treated for 24 h with antiretrovirals (ARVs) from different classes at 100x EC50 concentrations. Subsequently, virus production was quantified using a Gag p24 ELISA. To mimic escape from vaginal drug pressure, the infected cells were then incubated in ARV-free medium for three consecutive periods of 24 h. Infectivity of newly produced virions was determined after each period by titration in TZM-bl cells and PBMCs using equal amounts of p24. B) Production of Gag p24 by infected PBMCs during 24 h treatment with eleven ARVs: the non-nucleoside reverse transcriptase inhibitors (NNRTIs; blue) UC781 and TMC120, the nucleotide reverse transcriptase inhibitor tenofovir (PMPA; red), the entry inhibitors (grey) maraviroc (MVC), T-20, C34-chol, griffithsin (GRFT) and M48U1, the protease inhibitors (green) lopinavir (LPV) and saquinavir (SQV), and the integrase inhibitor raltegravir (RAL). Values are expressed relative to untreated control cultures and represent the mean +/− SEM of at least three independent experiments, each carried out in triplicate. C) Bal infectivity of de novo produced virus by pretreated infected PBMCs in absence of drug during three consecutive periods of 24 h. Values are expressed relative to untreated control cultures and represent the mean +/− SEM of at least three independent experiments, each carried out in triplicate. D) Infectivity of de novo produced transmitted/founder viruses REJO and THRO (subtype B) and Bal by M48U1 treated infected PBMCs in absence of drug during three consecutive periods of 24 h. Values are expressed relative to untreated control cultures. E) Infectivity of wild type (black) and M48U1-resistant (red) Bal virus produced during a 24 h period in absence of drug by pretreated infected PBMCs. Values represent the 50% Tissue Culture Infective Dose (TCID50)/ml as measured in one experiment carried out in triplicate.
PHA/IL-2 stimulated PBMCs were infected with 2 x 10^-3 multiplicity of infection (MOI) of the CCR5-tropic subtype B strain Bal for three days and subsequently washed extensively to remove the inoculum (Figure 1A). Next, cells were incubated for 24 hours with ARVs from different classes at 100x EC50 concentrations for each compound (Table 1). The virions produced from these cultures were then quantified in quadruplicate by a Gag p24 capture ELISA [18].
Next, we evaluated whether these ARVs affected the infectivity of the virus produced. PBMCs were infected as described above and were washed extensively to remove inhibitor and incubated in fresh medium for a new round of viral replication. After 24 h, supernatant was harvested, and then assessed for its ability to infect TZM-bl cells using identical viral inocula (based on equal amounts of Gag p24). The obtained viral titers were expressed as a percentage, relative to the untreated control cultures (Figure 1C). […] A smaller loss in titer was observed after treatment with the PIs saquinavir (relative titer of 47%) and lopinavir (relative titer of 14%), and the carbohydrate binding protein griffithsin (relative titer of 31%). The same samples were assayed in a multi-cycle infectivity assay with PBMCs, with similar results (Figure 1C). […]

H9+ cells = conditions: pretreatment of infected cells, syncytium formation; cited from earlier work
Description: We hypothesized that M48U1 associates with gp120 molecules expressed on the cell membrane of infected cells prior to viral budding. If M48U1 dissociates very slowly from its target and is retained after washing, this could cause the production of defective virions. However, if this were the case, one would expect a similar attenuation effect for the tight-binding RT inhibitors UC781 and TMC120.

[3] = Human immunodeficiency virus 1, PBMC

Compound	EC50 (HIV-1 Bal [1]; [3]) [nM]	lower Gag p24 concentration in culture supernatant vs untreated control (HIV-1 Bal infected PBMCs)	relative titer of de novo produced virions (HIV-1 Bal [2]) [%]	reduction in the infectivity of de novo produced virus (H9+ cells)	times less infectious than virions from control cultures (HIV-1 Bal [2]; 72 hours post-exposure, TZM-bl cells and PBMCs)	EC50 (HIV-1 Bal [1]) [nM]
Cc1cc(C)c(Nc2ccnc(Nc3ccc(C#N)cc3)n2)c(C)c1 [Dapivirine (TMC120)]	5	–	–	–	–	–
Cc1cccc(C)c1OCC(=O)N[C@@H](Cc1ccccc1)[C@@H](O)C[C@H](Cc1ccccc1)NC(=O)[C@H](C(C)C)N1CCCNC1=O [Lopinavir (LPV)]	40	0.5-1 log	14	–	–	–
Cc1nnc(C(=O)NC(C)(C)c2nc(C(=O)NCc3ccc(F)cc3)c(O)c(=O)n2C)o1 [Raltegravir (RLT)]	18	–	–	–	–	–
CC(C)(C)NC(=O)[C@@H]1C[C@@H]2CCCC[C@@H]2CN1C[C@@H](O)[C@H](Cc1ccccc1)NC(=O)[C@H](CC(N)=O)NC(=O)c1ccc2ccccc2n1 [Saquinavir (SQV)]	35	0.5-1 log	47	–	–	–
C[C@H](Cn1cnc2c(N)ncnc21)OCP(=O)(O)O [Tenofovir (TFV)]	4800	–	–	–	–	–
CC(C)=CCOc1cc(NC(=S)c2ccoc2C)ccc1Cl [UC781]	35	–	75	fivefold reduction	–	–
Griffithsin (GRFT): carbohydrate binding protein, binds glycans on gp120	–	–	31	–	two	1.5
